How the values were obtained:
Assay type in all cases: in vivo
Poa annua = assay: greenhouse test, pre-emergence treatment, POAAN
Excerpt: (§1) The culture containers used were plastic flowerpots containing loamy sand with approximately 3.0% of humus as the substrate. The seeds of the test plants were sown separately for each species.
For the pre-emergence treatment, the active ingredients, which had been suspended or emulsified in water, were applied directly after sowing by means of finely distributing nozzles. The containers were irrigated gently to promote germination and growth and subsequently covered with transparent plastic hoods until the plants had rooted. This cover caused uniform germination of the test plants, unless this had been impaired by the active ingredients.
(§2) Depending on the species, the plants were kept at 10-25° C. or 20-35° C., respectively.
(§3) The test period extended over 2 to 4 weeks. During this time, the plants were tended, and their response to the individual treatments was evaluated.
(§4) Evaluation was carried out using a scale from 0 to 100. 100 means no emergence of the plants, or complete destruction of at least the aerial moieties, and 0 means no damage, or normal course of growth. A good herbicidal activity is given at values of at least 70 and a very good herbicidal activity is given at values of at least 85.
(§5) The plants used in the greenhouse experiments were of the following species: […]

Echinocloa crus-galli [1] = assay: greenhouse test, pre-emergence treatment, ECHCG
Summary of the method: (§6)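 Pre-emergence greenhouse test: seeds sown per species in loamy sand (about 3.0% humus), aqueous suspension or emulsion of active sprayed right after sowing, pots covered until rooting. Kept at 10-25 °C or 20-35 °C for 2 to 4 weeks; damage scored 0 (none) to 100 (no emergence/complete destruction).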

Echinocloa crus-galli [2] = assay: greenhouse test, post-emergence treatment, ECHCG; conditions: post-emergence
Summary of the method: (§7)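 Loamy sand, ~3.0% humus; plants 3–15 cm at treatment; compound suspended/emulsified in water; 10–25 or 20–35 °C per species; 2–4 wk; score 0–100 phytotoxicity.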

Alopecurus myosuroides = assay: greenhouse test, post-emergence treatment, ALOMY; conditions: post-emergence
Summary of the method: as §7

Apera spica-venti = assay: greenhouse test, pre-emergence treatment, APESV
Summary of the method: as §6

Abutilon theophrasti = assay: greenhouse test, post-emergence treatment, ABUTH
Excerpt: as §1
(§8) For the post-emergence treatment, the test plants were first grown to a height of 3 to 15 cm, depending on the plant habit, and only then treated with the active ingredients which had been suspended or emulsified in water. For this purpose, the test plants were either sown directly and grown in the same containers, or they were first grown separately as seedlings and transplanted into the test containers a few days prior to treatment.
as §2, §3, §4, §5

Amaranthus retroflexus = assay: greenhouse test, post-emergence treatment, AMARE; conditions: 1000 g/ha
Summary of the method: as §7

Setaria viridis = assay: greenhouse test, post-emergence treatment, SETVI
Excerpt: as §1, §8, §2, §3, §4, §5

Compound	herbicidal activity (Echinocloa crus-galli [1]; 1000 g/ha)	herbicidal activity (Echinocloa crus-galli [2]; 2000 g/ha)	herbicidal activity (Abutilon theophrasti; 1000 g/ha)	herbicidal activity (Amaranthus retroflexus)	herbicidal activity (Apera spica-venti; 1000 g/ha)	other results
Brc1cc(-c2nc(C3CC3)ncc2-c2ccccc2Br)co1 [Ex. 268]	very good (a very good herbicidal activity is given at values of at least 85)	–	–	–	–	herbicidal activity (Poa annua; 1000 g/ha): very good (a very good herbicidal activity is given at values of at least 85); herbicidal activity (Echinocloa crus-galli [2]; 1000 g/ha): very good (a very good herbicidal activity is given at values of at least 85)
OC(c1nc(C2CC2)ncc1-c1ccccc1Cl)C(O)c1c(Cl)ccc(Cl)c1Cl (stereo not drawn) [Ex. 241]	–	good (A good herbicidal activity is given at values of at least 70)	–	–	–	herbicidal activity (Poa annua; 2000 g/ha): very good (a very good herbicidal activity is given at values of at least 85)
C=Cc1nc(C2CC2)ncc1-c1ccccc1Cl [Ex. 211]	–	very good (a very good herbicidal activity is given at values of at least 85)	–	–	–	herbicidal activity (Alopecurus myosuroides; 2000 g/ha): good (A good herbicidal activity is given at values of at least 70); herbicidal activity (Poa annua; 2000 g/ha): good (A good herbicidal activity is given at values of at least 70); herbicidal activity (Apera spica-venti; 2000 g/ha): good (A good herbicidal activity is given at values of at least 70)
CC(C)(O)c1nc(C2CC2)ncc1-c1ccccc1Cl [Ex. 86]	–	–	good (A good herbicidal activity is given at values of at least 70)	good (A good herbicidal activity is given at values of at least 70)	good (A good herbicidal activity is given at values of at least 70)	herbicidal activity (Setaria viridis; 1000 g/ha): very good (a very good herbicidal activity is given at values of at least 85)
Clc1cncc(-c2nc(C3CC3)ncc2-c2ccccc2Cl)c1 [Ex. 279]	very good (a very good herbicidal activity is given at values of at least 85)	–	very good (a very good herbicidal activity is given at values of at least 85)	very good (a very good herbicidal activity is given at values of at least 85)	very good (a very good herbicidal activity is given at values of at least 85)	herbicidal activity (Alopecurus myosuroides; 1000 g/ha): very good (a very good herbicidal activity is given at values of at least 85)
CC1(C)OC(c2nc(C3CC3)ncc2-c2ccccc2Cl)C(C)(C)O1 (stereo not drawn) [Ex. 266]	very good (a very good herbicidal activity is given at values of at least 85)	–	very good (a very good herbicidal activity is given at values of at least 85)	very good (a very good herbicidal activity is given at values of at least 85)	very good (a very good herbicidal activity is given at values of at least 85)	herbicidal activity (Alopecurus myosuroides; 1000 g/ha): very good (a very good herbicidal activity is given at values of at least 85)
Cc1nc(C)c(-c2nc(C3CC3)ncc2-c2cc(C(F)(F)F)ccc2Cl)o1 [Ex. 278]	very good (a very good herbicidal activity is given at values of at least 85)	–	very good (a very good herbicidal activity is given at values of at least 85)	very good (a very good herbicidal activity is given at values of at least 85)	very good (a very good herbicidal activity is given at values of at least 85)	herbicidal activity (Echinocloa crus-galli [2]; 1000 g/ha): very good (a very good herbicidal activity is given at values of at least 85)
CC(=O)Cc1nc(C2CC2)ncc1-c1ccccc1Cl [Ex. 146]	–	very good (a very good herbicidal activity is given at values of at least 85)	–	–	–	herbicidal activity (Abutilon theophrasti; 2000 g/ha): very good (a very good herbicidal activity is given at values of at least 85); herbicidal activity (Echinocloa crus-galli [1]; 2000 g/ha): very good (a very good herbicidal activity is given at values of at least 85); herbicidal activity (Setaria viridis; 2000 g/ha): very good (a very good herbicidal activity is given at values of at least 85); herbicidal activity (Apera spica-venti; 2000 g/ha): very good (a very good herbicidal activity is given at values of at least 85)

From patent publication US11178871B2, “Herbicidal pyrimidine compounds” (BASF SE, priority 2016, dated 2021)
